# From publication PMC3378510 (Nature immunology, 2012)
# How the values were obtained:
# 1E6 CD8^+ T cell clone = assay: Peptide mutagenesis scan of 1E6 T cells, TNF secretion; type: cell-based, human; conditions: compared with index peptide; peptide 1 μg/ml, 16 hr
# [1] = system: 1E6 clone, in the context of HLA A*0201; conditions: compared with preproinsulin-derived peptide ALWGPDPAAA; cited from earlier work
Substance,"TNF response / activation, in words (1E6 CD8^+ T cell clone)","agonist potency, in words [1]"
Q: L Position 2: ALWGPDPAAA with L2 mutated to Q (AQWGPDPAAA),larger responses compared with the index peptide,–
R: A Position 1: ALWGPDPAAA with A1 mutated to R (RLWGPDPAAA),larger responses compared with the index peptide,–
RQFGPDFPTI,–,most potent peptide identified
